Source: patent US5128420A, “Method of making hydroxamic acid polymers from primary amide polymers” (Massachusetts Institute of Technology, priority 1988, dated 1992)

System: urease forming bacteria, Proteus
Assay: Urease inhibition activity (ammonia production by urease forming bacteria in artificial urine)
Format: cell-based
Description: PHA was tested for urease inhibition activity using the procedure of Griffith et al in Investigative Urology 13(5),346-350(1976). Briefly, one square centimeter of agar slab containing a layer of urease forming bacteria, Proteus, was dissolved in 25 ml of artificial urine made of 25 g urea dissolved in one liter water. 30 mg polymer was added per ml urine and the mixture incubated overnight at 37° C. The production of ammonia, indicative of urease activity, was measured using an amino acid analyzer.
*% activity was estimated relative to AHA from the ratio between the
decrease in ammonia number of the polymer and AHA.

## CC(=O)NO [AHA, acetyl hydroxamic acid]
30 mg per ml artificial urine, overnight at 37° C., amino acid analyzer
  Ammonia: 1165-1331
Estimated relative to AHA from the ratio between the decrease in ammonia number of the polymer and AHA
  % Activity: 100%
